Experiments:
[1] = system: Fusarium oxysporum f. sp. cucumerinum; assay: In vitro fungicidal evaluation, growth inhibition (FUSOXC); assay type: cell-based; parameters: scale not given here; settings: 25 ppm, 3-4 days at 21° C.
Description: (§1) Test compounds are dissolved in acetone and dispersed into cell well plates containing a suspension of ground fungal mycelia in a nutrient broth. Assay plates are incubated for 3-4 days at 21° C. Growth inhibition is measured visually and is rated using the following scale:
(§2) Untreated controls, solvent blanks and reference standards are included in each test.
(§3) Assay fungi include the plant pathogens, Pythium ultimum (Pythul); Rhizoctonia solani (Rhizso); Fusarium oxysporum f. sp. cucumerinum (Fusoxc); and Pseudocercosporella herpotrichoides (Psdche).
(§4) When more than one test is run, the data are averaged.

[2] = system: Pseudocercosporella herpotrichoides; assay: In vitro fungicidal evaluation, growth inhibition (PSDCHE); assay type: cell-based; parameters: scale not given here; settings: 25 ppm, 3-4 days at 21° C.
Description: as §1, §2, §3, §4

Rhizoctonia solani = assay: In vitro fungicidal evaluation, growth inhibition (RHIZSO); assay type: cell-based; parameters: scale not given here; settings: 25 ppm, 3-4 days at 21° C.
Description: as §1, §2, §3, §4

Pythium ultimum = assay: In vitro fungicidal evaluation, growth inhibition (PYTHUL); assay type: cell-based; parameters: scale not given here; settings: 25 ppm, 3-4 days at 21° C.
Description: as §1, §2, §3, §4

Pyricularia oryzae = assay type: in vivo; settings: 200 ppm, plants sprayed before inoculation
Botrytis cinerea = assay: In vivo fungicidal evaluation, Pepper Botrytis (PB); settings: 200 ppm, plants sprayed before inoculation
Cercospora beticola = assay: In vivo fungicidal evaluation, Sugar Beet Cercospora (SBC); settings: plants sprayed before inoculation
[3] = system: Erysiphe graminis f. sp. tritici; assay: In vivo fungicidal evaluation, Wheat Powdery Mildew (WPM); settings: 200 ppm, plants sprayed before inoculation
Venturia inaequalis = assay: In vivo fungicidal evaluation, Apple Scab (AS); settings: 200 ppm, plants sprayed before inoculation
Alternaria solani = assay: In vivo fungicidal evaluation, Tomato Early Blight (TEB); settings: 200 ppm, plants sprayed before inoculation
Plasmopara viticola = assay: In vivo fungicidal evaluation, Grape Downy Mildew (GDM); settings: 200 ppm, plants sprayed before inoculation

| Molecule | growth inhibition rating, FUSOXC [1] | growth inhibition rating, PSDCHE [2] | growth inhibition rating, RHIZSO (Rhizoctonia solani) | growth inhibition rating, PYTHUL (Pythium ultimum) | disease control rating, RB (Pyricularia oryzae) | disease control rating, PB (Botrytis cinerea) | disease control rating, SBC (Cercospora beticola; 200 ppm) | disease control rating, WPM [3] | disease control rating, AS (Venturia inaequalis) | disease control rating, TEB (Alternaria solani) | disease control rating, GDM (Plasmopara viticola) | disease control rating, SBC (Cercospora beticola; 400 ppm) |
| --- | --- | --- | --- | --- | --- | --- | --- | --- | --- | --- | --- | --- |
| CC(C)(C)C(=O)C(=S)N(Cc1ccccc1)OC(=O)Nc1ccccc1 [Carbanilate ester of N-benzyl-3,3-dimethyl-2-oxo-1-thiobutyrohydroxamate] | 0.5 | 0.0 | 2.5 | 6.0 |  |  |  |  |  |  |  |  |
| CN(O)C(=S)C(=O)C1(C)CC1 [N,1-dimethyl-alpha-thio-cyclopropaneglyoxylohydroxamic acid] | 0.5 | 0.0 | 0.0 | 7.0 |  |  |  |  |  |  |  |  |
| CC(C)(C)C(=O)C(=S)N([O-])Cc1ccccc1.CC(C)(C)C(=O)C(=S)N([O-])Cc1ccccc1.[Cu+2] [N-benzyl-3,3-dimethyl-2-oxo-1-thiobutyrohydroxamic acid copper(+2) chelate] | 0.0 | 0.0 | 1.5 | 1.5 |  |  |  |  |  |  |  |  |
| CC(C)(C)C(=O)C(=S)N([O-])Cc1ccccc1.CC(C)(C)C(=O)C(=S)N([O-])Cc1ccccc1.[Zn+2] [N-benzyl-3,3-dimethyl-2-oxo-1-thiobutyrohydroxamic acid zinc(+2) chelate] | 0.0 | 0.0 | 0.0 | 4.0 | 0.0 | 0.0 | 6.0 | 0.0 | 0.0 | 0.0 | 0.0 |  |
| CC(C)(C)C(=O)C(=S)N(O)Cc1ccccc1 [N-benzyl-3,3-dimethyl-2-oxo-1-thiobutyrohydroxamic acid] | 3.5 | 7.0 | 4.5 | 7.0 |  |  |  |  |  |  |  |  |
| CC(C)(C)C(=O)C(=S)N([O-])C1CCCC1.CC(C)(C)C(=O)C(=S)N([O-])C1CCCC1.[Cu+2] [N-cyclopentyl-3,3-dimethyl-2-oxo-1-thiobutyrohydroxamic acid copper(+2) chelate] | 0.0 | 0.0 | 0.0 | 0.0 | 0.0 | 0.0 | 0.5 | 0.0 | 0.0 | 0.0 | 0.0 | 2.0 |
| CC(C)(C)C(=O)C(=S)N(O)C1CCCC1.CC(C)(C)C(=O)C(=S)N(O)C1CCCC1.[Zn+2] [N-cyclopentyl-3,3-dimethyl-2-oxo-1-thiobutyrohydroxamic acid zinc(+2) chelate] | 3.7 | 3.0 | 3.3 | 7.0 | 0.0 | 0.0 | 2.3 | 0.0 | 0.0 | 0.0 | 0.0 | 1.0 |
| CC(C)(C)C(=O)C(=S)N(O)C1CCCC1 [N-cyclopentyl-3,3-dimethyl-2-oxo-1-thiobutyrohydroxamic acid] | 1.5 | 1.5 | 1.5 | 3.0 | 0.0 | 0.0 | 0.3 | 0.0 | 0.0 | 0.0 | 0.0 |  |
| CC(C)(C)C(=O)C(=S)N([O-])C1CCCC1.CC(C)(C)C(=O)C(=S)N([O-])C1CCCC1.CC(C)(C)C(=O)C(=S)N([O-])C1CCCC1.[Fe+3] [N-cyclopentyl-3,3-dimethyl-2-oxo-1-thiobutyrohydroxamicacid iron(+3) chelate] | 0.0 | 0.0 | 0.0 | 0.0 | 0.0 | 0.0 | 0.8 | 0.0 | 0.0 | 0.0 | 0.0 | 1.8 |
| CC(C)N([O-])C(=S)C(=O)C(C)(C)C.CC(C)N([O-])C(=S)C(=O)C(C)(C)C.[Zn+2] [N-isopropyl-3,3-dimethyl-2-oxo-1-thiobutyrohydroxamic acid zinc (+2) chelate] | 2.7 | 0.0 | 1.0 | 6.3 | 0.0 | 2.0 | 0.0 | 0.0 | 0.0 | 0.0 | 3.0 |  |
| CN([O-])C(=S)C(=O)C12CC3CC(CC(C3)C1)C2.CN([O-])C(=S)C(=O)C12CC3CC(CC(C3)C1)C2.[Cu+2] [N-methyl-alpha-thio-1-adamantaneglyoxylohydroxamic acid copper(+2) chelate] | 0.0 | 0.0 | 0.0 | 0.0 | 0.0 | 0.0 | 0.5 | 0.0 | 0.0 | 0.0 | 0.0 | 1.8 |
| CN(O)C(=S)C(=O)C12CC3CC(CC(C3)C1)C2 [N-methyl-α-thio-1-adamantaneglyoxylohydroxamic acid] | 1.7 | 3.3 | 1.0 | 7.0 | 0.0 | 0.0 | 1.8 | 0.0 | 0.0 | 0.0 | 0.0 | 3.0 |
| CC(=O)ON(C)C(=S)C(=O)C(C)(C)C [acetate ester of N,3,3-trimethyl-2oxo-1-thiobutyrohydroxamate] | 0.0 | 0.0 | 0.0 | 9.0 | 0.0 | 0.0 | 0.0 | 0.0 | 0.0 | 5.0 | 0.0 |  |
| C=CC(=O)ON(C)C(=S)C(=O)C(C)(C)C [acrylate ester of N,3,3-trimethyl-2-oxo-1-thiobutyrohydroxamate] | 0.0 | 7.0 | 0.0 | 9.0 | 0.0 | 2.0 | 0.0 | 0.0 | 0.0 | 0.0 | 0.0 |  |
| COC(=O)ON(C)C(=S)C(=O)C(C)(C)C [methylcarbonate ester of N,3,3-trimethyl-2-oxo-1thiobutyrohydroxamate] | 0.0 | 0.0 | 0.0 | 5.0 | 0.0 | 0.0 | 0.0 | 0.0 | 0.0 | 2.0 | 0.0 |  |
| CN(OC(=O)c1ccc(Cl)cc1)C(=S)C(=O)C(C)(C)C [p-Chlorobenzoate ester of N,3,3-trimethyl-2-oxo-1-thiobutyrohydroxamate] | 0.0 | 0.0 | 0.0 | 0.0 | 6.0 | 8.0 | 4.0 | 3.0 | 8.0 | 6.0 | 0.0 |  |
| N-methyl-alpha-thio-1-adamantaneglyoxylohydroxamic acid zinc(+2) chelate | 0.0 | 0.0 | 0.0 | 1.5 | 0.0 | 0.0 | 0.5 | 0.0 | 0.0 | 0.0 | 0.0 | 3.0 |
